According to US20210053957A1, “HERBICIDAL COMPOUNDS” (SYNGENTA PARTICIPATIONS AG, priority 2018, published 2021):

Assays:
Assay in all cases: Post-emergence efficacy, glasshouse spray test
Type in all cases: in vivo
Setaia fabei (SETFA) = conditions: Application Rate 500 g/Ha, evaluated after 13 days; for pest or weed control at 500 g/ha: Setaria faberi, post-emergence, 312 h, read-out: Control of weed species after post-emergence application, SETFA (100=total damage to plant; 0=no damage to plant)
In short: (§1)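 Pot-grown plants sprayed 14 days after sowing, held in glasshouse at 24/16° C day/night, 14 h light, 65% humidity. Active formulated in acetone plus IF50 as 50 g/l stock, diluted in 0.25% or 1% Empicol ESC70 + 1% ammonium sulphate. Damage scored after 13 days, 0 (none) to 100 (total).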

[1] = system: Ipomoea hederacea (IPOHE); conditions: Application Rate 500 g/Ha, evaluated after 13 days; for pest or weed control at 500 g/ha: Ipomoea hederacea, post-emergence, 312 h, read-out: Control of weed species after post-emergence application, IPOHE (100=total damage to plant; 0=no damage to plant)
In short: as §1

[2] = system: Amaranthus palmeri (AMAPA); conditions: Application Rate 500 g/Ha, evaluated after 13 days; for pest or weed control at 500 g/ha: Amaranthus palmeri, post-emergence, 312 h, read-out: Control of weed species after post-emergence application, AMAPA (100=total damage to plant; 0=no damage to plant)
In short: as §1

[3] = system: Euphorbia heterophylla (EPHHL); conditions: Application Rate 500 g/Ha, evaluated after 13 days; for pest or weed control at 500 g/ha: Euphorbia heterophylla, post-emergence, 312 h, read-out: Control of weed species after post-emergence application, EPHHL (100=total damage to plant; 0=no damage to plant)
In short: as §1

[4] = system: Echinochloa crus-galli (ECHCG); conditions: Application Rate 500 g/Ha, evaluated after 13 days; for pest or weed control at 500 g/ha: Echinochloa crus-galli, post-emergence, 312 h, read-out: Control of weed species after post-emergence application, ECHCG (100=total damage to plant; 0=no damage to plant)
In short: as §1

Lolium perenne (LOLPE) = conditions: Application Rate 500 g/Ha, evaluated after 13 days; for pest or weed control at 500 g/ha: Lolium perenne, post-emergence, 312 h, read-out: Control of weed species after post-emergence application, LOLPE (100=total damage to plant; 0=no damage to plant)
In short: as §1

[5] = system: Digitaria sanguinalis (DIGSA); conditions: Application Rate 500 g/Ha, evaluated after 13 days; for pest or weed control at 500 g/ha: Digitaria sanguinalis, post-emergence, 312 h, read-out: Control of weed species after post-emergence application, DIGSA (100=total damage to plant; 0=no damage to plant)
In short: as §1

Eleusine indica (ELEIN) = conditions: Application Rate 500 g/Ha, evaluated after 13 days; for pest or weed control at 500 g/ha: Eleusine indica, post-emergence, 312 h, read-out: Control of weed species after post-emergence application, ELEIN (100=total damage to plant; 0=no damage to plant)
In short: as §1

[6] = system: Chenopodium album (CHEAL); conditions: Application Rate 500 g/Ha, evaluated after 13 days; for pest or weed control at 500 g/ha: Chenopodium album, post-emergence, 312 h, read-out: Control of weed species after post-emergence application, CHEAL (100=total damage to plant; 0=no damage to plant)
In short: as §1

| Compound | Control of weed species after post-emergence application, SETFA (100=total damage to plant; 0=no damage to plant) (Setaia fabei (SETFA)) | Control of weed species after post-emergence application, IPOHE (100=total damage to plant; 0=no damage to plant) [1] | Control of weed species after post-emergence application, AMAPA (100=total damage to plant; 0=no damage to plant) [2] | Control of weed species after post-emergence application, EPHHL (100=total damage to plant; 0=no damage to plant) [3] | Control of weed species after post-emergence application, ECHCG (100=total damage to plant; 0=no damage to plant) [4] | Control of weed species after post-emergence application, LOLPE (100=total damage to plant; 0=no damage to plant) (Lolium perenne (LOLPE)) | Control of weed species after post-emergence application, DIGSA (100=total damage to plant; 0=no damage to plant) [5] | Control of weed species after post-emergence application, ELEIN (100=total damage to plant; 0=no damage to plant) (Eleusine indica (ELEIN)) | Control of weed species after post-emergence application, CHEAL (100=total damage to plant; 0=no damage to plant) [6] | pest or weed control at 500 g/ha (Setaia fabei (SETFA)) [%] | pest or weed control at 500 g/ha [1] [%] | pest or weed control at 500 g/ha [2] [%] | pest or weed control at 500 g/ha [3] [%] | pest or weed control at 500 g/ha [4] [%] | pest or weed control at 500 g/ha (Lolium perenne (LOLPE)) [%] | pest or weed control at 500 g/ha [5] [%] | pest or weed control at 500 g/ha (Eleusine indica (ELEIN)) [%] | pest or weed control at 500 g/ha [6] [%] |
| --- | --- | --- | --- | --- | --- | --- | --- | --- | --- | --- | --- | --- | --- | --- | --- | --- | --- | --- |
| COP(=O)(CCC[n+]1ccc(-c2ncco2)cn1)OC.[Br-] [Compound A76] | 40 | 30 | 30 | 40 | 30 | 30 | 60 | 70 | 20 |  |  |  |  |  |  |  |  |  |
| O=S(=O)([O-])CC[n+]1ccc(-c2cccs2)cn1 [Compound A36] |  |  |  |  |  |  |  |  |  | 10 | 30 | 100 | 30 | 0 | 20 | 10 | 20 | 60 |
| O=S(=O)([O-])CCC[n+]1ccc(-c2ccon2)cn1 [Compound A59] |  |  |  |  |  |  |  |  |  | 80 | 80 | 90 | 100 | 70 | 70 | 70 | 90 | 90 |
| CNC(=O)c1oc(-c2cc[n+](CCC(=O)O)nc2)nc1C [Compound A129] |  |  |  |  |  |  |  |  |  | 100 | 80 | 100 | 90 | 60 | 60 | 70 | 90 | 70 |
| Cn1ncnc1-c1cc[n+](CCS(=O)(=O)[O-])nc1 [Compound A16] |  |  |  |  |  |  |  |  |  | 80 | 80 | 100 | 90 | 80 | 90 | 70 | 80 | 100 |
| Cn1ncnc1-c1cc[n+](CCC(=O)O)nc1 [Compound A27] |  |  |  |  |  |  |  |  |  | 90 | 70 | 100 | 90 | 90 | 30 | 90 | 50 | 90 |
| Cn1nnnc1-c1cc[n+](CCS(=O)(=O)O)nc1 [Compound A12] |  |  |  |  |  |  |  |  |  | 40 | 20 | 60 | 20 | 30 | 70 | 60 | 30 | 30 |
| N[C@@H](CC[n+]1ccc(-c2ncco2)cn1)C(=O)O [Compound A110] |  |  |  |  |  |  |  |  |  | 80 | 20 | 90 | 40 | 100 | 20 | 90 | 100 | 80 |
| CNC(=O)c1coc(-c2cc[n+](CCS(=O)(=O)O)nc2)n1 [Compound A125] | 70 | 10 | 30 | 40 | 60 | 40 | 60 | 40 | 10 |  |  |  |  |  |  |  |  |  |
